In patent publication US20080146500A1, “Selective Vpac2 Receptor Peptide Agonists” (priority 2004, published 2008):
Ends that are not written are not given here.

Experiments:
[1] = system: Normal Wistar rats; test: Intravenous glucose tolerance test (IVGTT), serum glucose and insulin; assay type: in vivo, rat
Experimental: Intravenous glucose tolerance test (IVGTT): Normal Wistar rats are fasted overnight and are anesthetized prior to the experiment. A blood sampling catheter is inserted into the rats. The compound is given in the jugular vein. Blood samples are taken from the carotid artery. A blood sample is drawn immediately prior to the injection of glucose along with the compound. After the initial blood sample, glucose mixed with compound is injected intravenously (i.v.). Compound may also be injected intravenously or subcutaneously prior to the glucose challenge. A glucose challenge of 0.5 g/kg body weight is given, injecting a total of 1.5 mL vehicle with glucose and agonist per kg body weight. The peptide concentrations are varied to produce the desired dose in μg/kg. Blood samples are drawn at 2, 4, 6 and 10 minutes after giving glucose. The control group of animals receives the same vehicle along with glucose, but with no compound added. In some instances, a 30 minute post-glucose blood sample is drawn. Aprotinin is added to the blood sample (250-500 kIU/ml blood). The serum is then analyzed for glucose and insulin using standard methodologies.
The assay uses a formulated and calibrated peptide stock in PBS. Normally, this stock is a prediluted 100 μM stock. However, a more concentrated stock with approximately 1 mg agonist per 1 mL is used. The specific concentration is always known. Variability in the maximal response is mostly due to variability in the vehicle dose.

[2] = system: ZDF rats; test: Glucose lowering in conscious food-deprived diabetic ZDF rats; assay type: in vivo, rat
Experimental: Glucose lowering in diabetic ZDF rats. ZDF rats, 8-9 weeks old with fed glucose levels of approximately 300 mg/dl are used for this experiment. The animals are randomised into control (vehicle) and treatment group(s) on the day of the experiment and are conscious throughout the experiment. The compound is injected intravenously at the start of the experiment and blood samples are drawn from the tail vein immediately prior to compound injection and then 0.5, 1, 2, 3, 4 and 24 h after compound injection. The animals are deprived of food during the first 2 or 4 h of the experiment. The blood samples are collected in EDTA tubes, aprotinin added and immediately put on ice pending insulin and glucose analysis using standard methods.

[3] = 10 μg/kg iv, 0 h (immediately prior to injection)
[4] = 10 μg/kg iv, 0.5 h after injection
[5] = 10 μg/kg iv, 1 h after injection
[6] = 10 μg/kg iv, 2 h after injection
[7] = 10 μg/kg iv, 4 h after injection (food access after 2 h)
[8] = 10 μg/kg iv, 24 h after injection (food access after 2 h)
[9] = 30 μg/kg iv, 0 h (immediately prior to injection)
[10] = 30 μg/kg iv, 0.5 h after injection
[11] = 30 μg/kg iv, 1 h after injection
[12] = 30 μg/kg iv, 2 h after injection
[13] = 30 μg/kg iv, 4 h after injection (food access after 2 h)
[14] = 30 μg/kg iv, 24 h after injection (food access after 2 h)
[15] = 100 μg/kg iv, 0 h (immediately prior to injection)
[16] = 100 μg/kg iv, 1 h after injection
[17] = 100 μg/kg iv, 2 h after injection
[18] = 100 μg/kg iv, 3 h after injection
[19] = 100 μg/kg iv, 4 h after injection
[20] = 100 μg/kg iv, 24 h after injection (food access after 4 h)

“P137: PEGylated material obtained from P120 and methoxy-PEG2-MAL-40K (HSDAVFTDNYTRLRKQVAAKKYLQSIKNKRYGGPSSGAPPPC; also: PEGylated with methoxy-PEG2-MAL-40K, site not given here) [Agonist P137]” was tested, and the “% increase AUC (insulin, 0-10 min after glucose)” value (shortened to “% increase AUC”) ([1]; Dose = 10 μg/kg iv, time between glucose & compound 0 h) was “+366%”, the “% increase AUC” value ([1]; Dose = 10 μg/kg iv, time between glucose & compound 4 h) was “+193%” and the “% increase AUC” value ([1]; Dose = 30 μg/kg iv, time between glucose & compound 4 h) was “+321%”. For the same substance, the “% increase AUC” value ([1]; Dose = 100 μg/kg iv, time between glucose & compound 4 h) was “+487%”, the glucose [2, 3] was 344 mg/dL and the insulin [2, 3] was 12.5 ng/mL. It also gave a glucose [2, 4] of 277 mg/dL, an insulin [2, 4] of 21.2 ng/mL and a glucose [2, 5] of 244 mg/dL. For the same substance, the insulin [2, 5] was 18.5 ng/mL, the glucose [2, 6] was 199 mg/dL and the insulin [2, 6] was 20.0 ng/mL. It also gave a glucose [2, 7] of 361 mg/dL, an insulin [2, 7] of 18.5 ng/mL and a glucose [2, 8] of 336 mg/dL. It also gave an insulin [2, 8] of 15.0 ng/mL, a glucose [2, 9] of 329 mg/dL and an insulin [2, 9] of 10.9 ng/mL. For the same substance, the glucose [2, 10] was 254 mg/dL, the insulin [2, 10] was 27.0 ng/mL and the glucose [2, 11] was 218 mg/dL. The insulin [2, 11] was 23.7 ng/mL, the glucose [2, 12] was 156 mg/dL and the insulin [2, 12] was 23.1 ng/mL. The glucose [2, 13] was 347 mg/dL, the insulin [2, 13] was 20.8 ng/mL and the glucose [2, 14] was 347 mg/dL. For the same substance, the insulin [2, 14] was 16.0 ng/mL, the glucose [2, 15] was 307 mg/dL and the insulin [2, 15] was 17.8 ng/mL. It also gave a glucose [2, 16] of 362 mg/dL, an insulin [2, 16] of 19.9 ng/mL and a glucose [2, 17] of 360 mg/dL. It also gave an insulin [2, 17] of 15.9 ng/mL, a glucose [2, 18] of 323 mg/dL and an insulin [2, 18] of 15.4 ng/mL. It also gave a glucose [2, 19] of 304 mg/dL, an insulin [2, 19] of 15.1 ng/mL and a glucose [2, 20] of 400 mg/dL. The insulin [2, 20] was 11.1 ng/mL.
